Consider one compound from paper PMC4492759, “Pharmacological profiling of the hemodynamic effects of cannabinoid ligands: a combined in vitro and in vivo approach” (Pharmacology Research & Perspectives, 2015).

For one assay, the target named is T1, rat CB1 (Rattus norvegicus, UniProt P20272).
T1 construct: expressed in transfected cells; host or cells: HEK293s, transient transfection; membranes prepared
Description: [35S]-GTPγS binding, membranes of HEK293s cells transfected with rat CB1. It counts as biochemical. The note with it: agonist mode; mean ± SEM, at least three experiments; read-out: CB1 EC50, Rat. Here is the method: (§1) Antagonist assays were performed similarly, with the addition of an EC80 concentration of CP55940 as a nonselective CB1/CB2 agonist in conjunction with the ligand to be tested. Nonspecific binding was determined in the presence of 20 μmol/L unlabeled GTPγS. The reaction was terminated by addition of ice-cold wash buffer (50 mmol/L Tris-HCl, 5 mmol/L MgCl2, 50 mmol/L NaCl; pH 7.4) followed by rapid filtration under vacuum through 96-well B-glass fiber filter plates (PerkinElmer, Waltham, Massachusetts, USA) using a Biomek FX (Beckman Coulter, Bromma, Sweden). The filter plates were dried (30 min at 50°C) before scintillation liquid (PerkinElmer) was added onto the filters and the bound radioactivity was determined using a scintillation counter (Wallac). Data were fitted with a four-parameter logistic fit using the equation y = A + (B − A)/1 + ((C/x)^D), where A is no activation, B is full activation, C is the EC50, and D is the Hill slope. All data were based on at least three independent experiments.
For orientation: GTPγS resists hydrolysis and so accumulates on activated G proteins.

The target in assay [1] is T2, rat GPR55 (Rattus norvegicus, UniProt F1MAK4).
T2 construct: expressed in transfected cells; host or cells: HEK293s, transient transfection; membranes prepared
T2 sequence (F1MAK4 1-319): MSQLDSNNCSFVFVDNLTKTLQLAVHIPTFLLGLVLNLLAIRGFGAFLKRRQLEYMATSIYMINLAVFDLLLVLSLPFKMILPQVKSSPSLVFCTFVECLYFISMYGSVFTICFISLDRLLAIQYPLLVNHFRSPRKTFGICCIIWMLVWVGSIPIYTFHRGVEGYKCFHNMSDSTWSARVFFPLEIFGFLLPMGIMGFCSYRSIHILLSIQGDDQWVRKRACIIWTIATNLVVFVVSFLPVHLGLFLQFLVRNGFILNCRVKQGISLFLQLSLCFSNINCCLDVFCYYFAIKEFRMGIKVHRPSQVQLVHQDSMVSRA
Description: [35S]-GTPγS binding, membranes of HEK293s cells transfected with rat GPR55. It counts as biochemical. Conditions: agonist mode; mean ± SEM, at least three experiments; read-out: GPR55 EC50, Rat. Here is the method: as §1, with “HEK293s cells were transiently transfected with cDNA encoding rat or mouse CB1 or GPR55 and membranes were prepared as previously described (Ryberg et al. [2007]). In short, agonist activities in [^35S]-GTPγS binding assays were determined by the addition of ligand at 30°C for 45 min in membrane buffer [50 mmol/L NaCl, 5 mmol/L MgCl2, 0.5 mmol/L EDTA, 25 mmol/L HEPES (all Sigma, Gillingham, Dorset, UK); pH 7.4] containing 0.05 μg μL^−1 of membrane protein with 0.01% BSA, 25 μmol/L guanosine 5′-diphosphate (GDP), 100 μmol/L dithiothreitol (DTT), and 0.53 nmol/L [^35S]GTPγS (PerkinElmer) in a final volume of 200 μL. Antagonist” for “Antagonist”

The test system of assay [2] is rat GPR55. The assay is described as above. It counts as biochemical. The note with it: GTPγS binding, GPR55 activation. Here is the method:
as §1, with “HEK293s cells were transiently transfected with cDNA encoding rat or mouse CB1 or GPR55 and membranes were prepared as previously described (Ryberg et al. [2007]). In short, agonist activities in [^35S]-GTPγS binding assays were determined by the addition of ligand at 30°C for 45 min in membrane buffer [50 mmol/L NaCl, 5 mmol/L MgCl2, 0.5 mmol/L EDTA, 25 mmol/L HEPES (all Sigma, Gillingham, Dorset, UK); pH 7.4] containing 0.05 μg μL^−1 of membrane protein with 0.01% BSA, 25 μmol/L guanosine 5′-diphosphate (GDP), 100 μmol/L dithiothreitol (DTT), and 0.53 nmol/L [^35S]GTPγS (PerkinElmer) in a final volume of 200 μL. Antagonist” for “Antagonist”

The target of the next assay is T3, mouse GPR55 (Mus musculus, UniProt Q3UJF0).
T3 construct: expressed in transfected cells; host or cells: HEK293s, transient transfection; membranes prepared
T3 sequence (Q3UJF0 whole entry): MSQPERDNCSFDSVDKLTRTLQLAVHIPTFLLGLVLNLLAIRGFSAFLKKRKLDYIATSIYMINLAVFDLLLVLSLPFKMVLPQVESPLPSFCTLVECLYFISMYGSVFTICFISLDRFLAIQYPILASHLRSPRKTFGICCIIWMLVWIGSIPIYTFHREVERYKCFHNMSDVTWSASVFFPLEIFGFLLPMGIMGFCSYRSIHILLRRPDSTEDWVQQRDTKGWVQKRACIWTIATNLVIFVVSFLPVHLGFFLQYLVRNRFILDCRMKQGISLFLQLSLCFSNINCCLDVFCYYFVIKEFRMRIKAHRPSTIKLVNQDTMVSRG
Description: [35S]-GTPγS binding, membranes of HEK293s cells transfected with mouse GPR55. It counts as biochemical. The note with it: agonist mode; mean ± SEM, at least three experiments; read-out: GPR55 EC50, Mouse. Here is the method: as §1, with “HEK293s cells were transiently transfected with cDNA encoding rat or mouse CB1 or GPR55 and membranes were prepared as previously described (Ryberg et al. [2007]). In short, agonist activities in [^35S]-GTPγS binding assays were determined by the addition of ligand at 30°C for 45 min in membrane buffer [50 mmol/L NaCl, 5 mmol/L MgCl2, 0.5 mmol/L EDTA, 25 mmol/L HEPES (all Sigma, Gillingham, Dorset, UK); pH 7.4] containing 0.05 μg μL^−1 of membrane protein with 0.01% BSA, 25 μmol/L guanosine 5′-diphosphate (GDP), 100 μmol/L dithiothreitol (DTT), and 0.53 nmol/L [^35S]GTPγS (PerkinElmer) in a final volume of 200 μL. Antagonist” for “Antagonist”

Assay [3] has as its system anesthetized Sprague–Dawley (SD) rats. Nature of the assay: Hemodynamic responses (MABP, HR) in anesthetized normotensive rats. Conditions: O-1602 5–100 ng kg−1 i.v. The class given is in vivo, rat. Here is the method: All experiments performed under terminal anesthesia were carried out following approval by Robert Gordon University Animal Ethics Panel. Anesthesia was induced in male SD rats (200–300 g) by sodium pentobarbital [60 mg kg^−1 intraperitoneal (i.p.) injection]. Male/female WT and GPR55^−/− mice (25–35 g) were anesthetized with a mixture of ketamine (120 mg kg^−1) and xylazine (16 mg kg^−1) via i.p. injection. For both species the trachea was cannulated to allow artificial respiration with room air when required (54 strokes min^−1 and tidal volume 1.5 mL 100 g^−1 for rats; 120 strokes min^−1 and tidal volume 100 μL 10 g^−1 for mice) and the left carotid artery and right jugular vein were cannulated for the measurement of arterial BP (MLT844 Physiological Pressure Transducer; AD Instruments, Oxford, UK) and drug administration, respectively. Core temperature was monitored continuously and maintained at 37–38°C with the aid of a Vetcare heated pad (Harvard Apparatus Ltd., Boston, Massachusetts, USA). Anesthesia was monitored by foot pinch reflex and maintained throughout by administration of additional doses of anesthetic (rats: 3–4 mg kg^−1 of sodium pentobarbital salt i.v.; mice: 50 μL 25 g^−1of ketamine/xylazine i.p.) every 40 min, or as required. […] Heart rate (HR) was calculated from the ECG and recorded throughout the entire experimental period. After a stabilization period of approximately 15 min dose–response experiments were carried out as described below.
As a preliminary assessment of the effects of ACEA on arterial BP, a single bolus intravenous dose (3 mg kg^−1; selected from the literature as a dose known to produce a depressor response) was given to anesthetized rats. […] The time interval between drug administrations was 10–15 min to allow BP values to return to predrug values.

T1 sequence (P20272 whole entry): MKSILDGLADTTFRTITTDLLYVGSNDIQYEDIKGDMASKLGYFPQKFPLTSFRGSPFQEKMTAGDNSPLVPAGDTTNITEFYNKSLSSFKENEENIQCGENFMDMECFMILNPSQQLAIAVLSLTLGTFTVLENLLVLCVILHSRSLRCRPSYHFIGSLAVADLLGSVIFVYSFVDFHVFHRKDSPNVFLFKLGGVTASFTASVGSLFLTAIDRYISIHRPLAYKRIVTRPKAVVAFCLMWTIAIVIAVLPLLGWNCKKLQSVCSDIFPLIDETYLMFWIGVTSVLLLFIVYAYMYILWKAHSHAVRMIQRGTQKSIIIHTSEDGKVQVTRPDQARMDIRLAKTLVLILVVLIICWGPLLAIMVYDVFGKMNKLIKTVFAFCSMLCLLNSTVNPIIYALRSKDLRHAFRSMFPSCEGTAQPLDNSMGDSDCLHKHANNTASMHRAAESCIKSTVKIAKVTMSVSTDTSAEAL

What is called EC50 is the concentration that produces a half-maximal response. For `C=C(C)[C@@H]1CCC(C)=C[C@H]1c1c(C)cc(O)cc1O` [O-1602], the EC50 on rat CB1 was more than 30000 nM; on rat GPR55 [1], 20 ± 3 nM; on mouse GPR55 it was 12 ± 4 nM. Besides, the “potency at GPR55 relative to that of ACEA” value in the assay with rat GPR55 [2] was “approximately 5 times”. The “changes in MABP or HR over and above vehicle” value in assay [3] is reported as “did not produce any changes”.
